Measurements as given in PMC4139099 (Biochimica et biophysica acta, 2013).
Where no end group is shown, it is not given here.

Key:
mice = assay: Toxicity and behavior in mice; assay type: in vivo; settings: i.p. 40 μg/g
chicks = assay: Toxicity and behavior in chicks; assay type: in vivo; settings: i.c.v. 60 μg/g
trypsin [1] = target: T1, trypsin (Sus scrofa, UniProt P00761); assay: Trypsin inhibitory assay; assay type: biochemical; settings: up to the concentration of 100 μg/mL
proteinase K = proteinase K (Parengyodontium album, UniProt P06873); assay: Proteolytic and thermal stability against proteinase K; assay type: in vitro ADME; settings: proteinase K from Tritirachium album; 50 °C, up to 48 h
thermolysin = target: T2, thermolysin (Bacillus thermoproteolyticus, UniProt P00800); assay: Proteolytic and thermal stability against thermolysin; assay type: in vitro ADME; settings: thermolysin from Bacillus thermoproteolyticus Rokko; 65 °C, up to 12 h
T2 sequence (P00800 233-548): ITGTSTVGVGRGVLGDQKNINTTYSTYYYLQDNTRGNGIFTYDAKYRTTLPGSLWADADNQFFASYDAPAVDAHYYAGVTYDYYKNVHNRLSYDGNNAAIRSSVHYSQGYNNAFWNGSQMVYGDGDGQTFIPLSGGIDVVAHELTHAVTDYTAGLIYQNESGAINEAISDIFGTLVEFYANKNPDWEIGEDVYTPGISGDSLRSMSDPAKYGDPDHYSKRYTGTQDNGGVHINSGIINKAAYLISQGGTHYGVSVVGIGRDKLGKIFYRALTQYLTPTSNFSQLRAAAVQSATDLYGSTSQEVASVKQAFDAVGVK

chymotrypsin [2] = target: T3, chymotrypsin (Bos taurus, UniProt P00766); assay: Chymotrypsin inhibitory assay; assay type: biochemical; settings: up to the concentration of 100 μg/mL
[3] = tested on: murine cerebrocortical neuron cells; assay: Veratridine-induced neuronal Ca2+ influx; assay type: cell-based; settings: data not shown
[4] = Solubility in water or low pH buffers; settings: pure water or low pH buffers
pepsin = pepsin (Sus scrofa, UniProt P00791); settings: cited from earlier work
chymotrypsin [5] = target: T3, chymotrypsin; settings: cited from earlier work
trypsin [6] = target: T1, trypsin; settings: cited from earlier work

T1 sequence (P00761 9-231): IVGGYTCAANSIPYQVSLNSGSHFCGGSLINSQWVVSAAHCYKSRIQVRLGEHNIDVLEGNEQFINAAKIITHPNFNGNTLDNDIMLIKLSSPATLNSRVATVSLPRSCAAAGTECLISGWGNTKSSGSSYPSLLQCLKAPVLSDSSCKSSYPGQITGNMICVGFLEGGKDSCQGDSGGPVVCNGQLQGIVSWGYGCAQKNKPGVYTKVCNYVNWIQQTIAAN
proteinase K, sequence (P06873 106-384): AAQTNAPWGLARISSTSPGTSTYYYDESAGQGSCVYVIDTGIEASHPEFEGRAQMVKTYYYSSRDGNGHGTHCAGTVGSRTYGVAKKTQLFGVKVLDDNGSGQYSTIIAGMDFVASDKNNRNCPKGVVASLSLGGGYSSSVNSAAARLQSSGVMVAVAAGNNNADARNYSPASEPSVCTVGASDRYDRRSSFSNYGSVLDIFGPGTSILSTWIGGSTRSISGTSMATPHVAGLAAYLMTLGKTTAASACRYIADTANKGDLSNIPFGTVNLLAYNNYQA
pepsin, sequence (P00791 60-385): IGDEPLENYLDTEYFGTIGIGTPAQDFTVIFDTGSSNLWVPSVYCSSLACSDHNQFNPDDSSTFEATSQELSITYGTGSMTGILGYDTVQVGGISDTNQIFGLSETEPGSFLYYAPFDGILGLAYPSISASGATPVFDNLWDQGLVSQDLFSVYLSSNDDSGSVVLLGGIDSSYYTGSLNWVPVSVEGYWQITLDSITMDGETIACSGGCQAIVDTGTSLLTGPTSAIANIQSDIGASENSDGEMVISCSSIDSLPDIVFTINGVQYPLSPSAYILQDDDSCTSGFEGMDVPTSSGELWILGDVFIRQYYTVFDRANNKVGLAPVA

| Substance | toxic effects or behavior changes in mice (mice) | toxic effects or behavior changes in chicks (chicks) | effect in trypsin inhibitory assay (trypsin [1]) | proteolytic and thermal stability against proteinase K (proteinase K) | proteolytic and thermal stability against thermolysin (thermolysin) | effect in chymotrypsin inhibitory assay (chymotrypsin [2]) | effect on neuronal Ca2+ influx [3] | solubility [4] | stability towards pepsin (pepsin) | stability towards chymotrypsin (chymotrypsin [5]) | stability towards trypsin (trypsin [6]) | stability to trypsin (trypsin [6]) |
| --- | --- | --- | --- | --- | --- | --- | --- | --- | --- | --- | --- | --- |
| asteropsin A [ASPA] | no toxic effects or behavior changes | no toxic effects or behavior changes | no effects | exceptional proteolytic and thermal stability | exceptional proteolytic and thermal stability | no effects |  |  |  |  |  |  |
| asteropsin C [ASPC] | no toxic effects or behavior changes | no toxic effects or behavior changes | no effects | exceptional proteolytic and thermal stability |  | no effects | no effect | virtually insoluble |  |  |  |  |
| kalata B1 (GLPVCGETCVGGTCNTPGCTCSWPVCTRN; not fully specified; ends and bridges not checked; UniProt P56254 89-117, looked up) |  |  |  |  |  |  |  |  | exhibits stability | exhibits stability | exhibits stability |  |
| ω-conotoxin MVIIA [ziconotide] |  |  |  |  |  |  |  |  |  |  |  | unstable |
